Earlier results in publication PMC10218704, “A Novel Blood–Brain Barrier-Penetrating and Vascular-Targeting Chimeric Peptide Inhibits Glioma Angiogenesis” (International Journal of Molecular Sciences, 2023).
Ends that are not written are not given here.

How the values were obtained:
[1] = test system: NRP-1; design: method as in 2 sources, ref 30 = [30]; PMID 33209022; doi:10.2147/IJN.S270208; 30. Lu L. Chen H. Wang L. Zhao L. Cheng Y. Wang A. Wang F. Zhang X. A Dual Receptor Targeting- and BBB Penetrating- Peptide Functionalized Polyethyleneimine Nanocomplex for Secretory Endostatin Gene D ||| ref 19-22 = [19]; PMID 10747021; doi:10.1093/emboj/19.7.1525; 19. Binétruy-Tournaire R. Demangel C. Malavaud B. Vassy R. Rouyre S. Kraemer M. Plouët J. Derbin C. Perret G. Mazié J.C. Identification of a peptide blocking vascular endothelial growth factor (VEGF)- || [20]; PMID 16959272; doi:10.1016/j.lfs.2006.08.005; 20. Starzec A. Vassy R. Martin A. Lecouvey M. Di Benedetto M. Crépin M. Perret G.Y. Antiangiogenic and antitumor activities of peptide inhibiting the vascular endothelial growth factor binding to neur || [21]; PMID 17983687; doi:10.1016/j.peptides.2007.09.013; 21. Starzec A. Ladam P. Vassy R. Badache S. Bouchemal N. Navaza A. du Penhoat C.H. Perret G.Y. Structure-function analysis of the antiangiogenic ATWLPPR peptide inhibiting VEGF (165) binding to neurop || [22]; PMID 27693752; doi:10.1016/j.jconrel.2016.09.035; 22. Ying M. Shen Q. Zhan C. Wei X. Gao J. Xie C. Yao B. Lu W. A stabilized peptide ligand for multifunctional glioma targeted drug delivery J. Control. Release 2016 243 86 98 10.1016/j.jconrel.2016.09; settings: cited from earlier work
Source text: (§1) ATWLPPR (AT7), which was identified by a mutated phage lib ... || Intracranial delivery of therapeutic agents is primarily hindered by the BBB [24]. The intercellular tight junction caused by the BBB restricts the passive diffusion of almost all large-molecule and more than 98% of small-molecule drugs from peripheral blood circulation to the brain tissue.

[2] = test system: VEGFR-2; design: method as in 2 sources, ref 30 = [30]; PMID 33209022; doi:10.2147/IJN.S270208; 30. Lu L. Chen H. Wang L. Zhao L. Cheng Y. Wang A. Wang F. Zhang X. A Dual Receptor Targeting- and BBB Penetrating- Peptide Functionalized Polyethyleneimine Nanocomplex for Secretory Endostatin Gene D ||| ref 19-22 = [19]; PMID 10747021; doi:10.1093/emboj/19.7.1525; 19. Binétruy-Tournaire R. Demangel C. Malavaud B. Vassy R. Rouyre S. Kraemer M. Plouët J. Derbin C. Perret G. Mazié J.C. Identification of a peptide blocking vascular endothelial growth factor (VEGF)- || [20]; PMID 16959272; doi:10.1016/j.lfs.2006.08.005; 20. Starzec A. Vassy R. Martin A. Lecouvey M. Di Benedetto M. Crépin M. Perret G.Y. Antiangiogenic and antitumor activities of peptide inhibiting the vascular endothelial growth factor binding to neur || [21]; PMID 17983687; doi:10.1016/j.peptides.2007.09.013; 21. Starzec A. Ladam P. Vassy R. Badache S. Bouchemal N. Navaza A. du Penhoat C.H. Perret G.Y. Structure-function analysis of the antiangiogenic ATWLPPR peptide inhibiting VEGF (165) binding to neurop || [22]; PMID 27693752; doi:10.1016/j.jconrel.2016.09.035; 22. Ying M. Shen Q. Zhan C. Wei X. Gao J. Xie C. Yao B. Lu W. A stabilized peptide ligand for multifunctional glioma targeted drug delivery J. Control. Release 2016 243 86 98 10.1016/j.jconrel.2016.09; settings: cited from earlier work
Source text: as §1

| Compound | binding to NRP-1 [1] | binding to VEGFR-2 [2] | affinity to NRP-1 ([1]; compared with TAT or AT7 alone) | affinity to VEGFR-2 ([2]; compared with TAT or AT7 alone) |
| --- | --- | --- | --- | --- |
| ATWLPPR [AT7, ATWLPPR] | able to bind to VEGFR-2 and NRP-1 | able to bind to VEGFR-2 and NRP-1 |  |  |
| CC(C)C[C@H](NC(=O)[C@H](Cc1c[nH]c2ccccc12)NC(=O)[C@@H](NC(=O)[C@H](C)NC(=O)[C@H](CS)NC(=O)[C@H](CCCNC(=N)N)NC(=O)[C@H](CCCNC(=N)N)NC(=O)[C@H](CCCNC(=N)N)NC(=O)[C@H](CCC(N)=O)NC(=O)[C@H](CCCNC(=N)N)NC(=O)[C@H](CCCNC(=N)N)NC(=O)[C@H](CCCCN)NC(=O)[C@H](CCCCN)NC(=O)[C@@H](N)CCCNC(=N)N)[C@@H](C)O)C(=O)N1CCC[C@H]1C(=O)N1CCC[C@H]1C(=O)N[C@@H](CCCNC(=N)N)C(=O)O [TAT-AT7] |  |  | higher affinity to VEGFR-2 and NRP-1 | higher affinity to VEGFR-2 and NRP-1 |
